Values of other authors as cited in PMC7686313, “Phase 1 study of mTORC1/2 inhibitor sapanisertib (TAK-228) in advanced solid tumours, with an expansion phase in renal, endometrial or bladder cancer” (British Journal of Cancer, 2020).

How the values were obtained:
[1] = system: refractory clear-cell RCC; parameters: method as in earlier work; conditions: 10 mg QD; cited from earlier work
[2] = system: RCC; conditions: patients with RCC; cited from earlier work

Compound | ORR [1] [%] | ORR [2] [%]
CO[C@H]1C[C@@H]2CC[C@@H](C)[C@@](O)(O2)C(=O)C(=O)N2CCCC[C@H]2C(=O)O[C@H]([C@H](C)C[C@@H]2CC[C@@H](OCCO)[C@H](OC)C2)CC(=O)[C@H](C)/C=C(\C)[C@@H](O)[C@@H](OC)C(=O)[C@H](C)C[C@H](C)/C=C/C=C/C=C/1C [everolimus, reference compound] | 13 | 
CO[C@H]1C[C@@H]2CC[C@@H](C)[C@@](O)(O2)C(=O)C(=O)N2CCCC[C@H]2C(=O)O[C@H]([C@H](C)C[C@@H]2CC[C@@H](OC(=O)C(C)(CO)CO)[C@H](OC)C2)CC(=O)[C@H](C)/C=C(\C)[C@@H](O)[C@@H](OC)C(=O)[C@H](C)C[C@H](C)/C=C/C=C/C=C/1C [temsirolimus] |  | 8.6
